# System: panel of nearly 500 cancer cell lines
# Assay: Cancer Cell Line Encyclopedia profiling, 3-day CellTiter-Glo
# Assay type: cell-based
# Parameters: Amax: unit not given here
smiles,measurement,setting,value
"CC(=O)c1c(C)c2cnc(Nc3ccc(N4CCNCC4)cn3)nc2n(C2CCCC2)c1=O [Palbociclib, reference compound]",Amax,769p (kidney),-52.63
same,Amax,8305c (thyroid),-51.0145
same,Amax,8505c (thyroid),-0.08134
same,EC50,COV318,> 8 µM
same,EC50,COV504,> 8 µM
same,EC50,GLC82,0.00254 µM
same,EC50,HCC15,> 8 µM
same,EC50,HEC-251,> 8 µM
same,EC50,HEY A8,0.947 µM
same,EC50,"Homo sapiens, 22Rv1",1.22 µM
same,EC50,"Homo sapiens, 639-V",> 8 µM
same,EC50,"Homo sapiens, 769-P",> 8 µM
same,EC50,"Homo sapiens, 8305C",0.576 µM
same,EC50,"Homo sapiens, 8505C",> 8 µM
same,EC50,"Homo sapiens, A 172",> 8 µM
same,EC50,"Homo sapiens, A204",0.407 µM
same,EC50,"Homo sapiens, A253",> 8 µM
same,EC50,"Homo sapiens, A549",1.14 µM
same,EC50,"Homo sapiens, A673",> 8 µM
same,EC50,"Homo sapiens, A2058",> 8 µM
same,EC50,"Homo sapiens, A2780",1.9 µM
same,EC50,"Homo sapiens, A-375",2.72 µM
same,EC50,"Homo sapiens, AMO1",> 8 µM
same,EC50,"Homo sapiens, AN3-CA",5.91 µM
same,EC50,"Homo sapiens, ASPC1",> 8 µM
same,EC50,"Homo sapiens, AU565",0.993 µM
same,EC50,"Homo sapiens, AZ-521",> 8 µM
same,EC50,"Homo sapiens, BFTC-909",> 8 µM
same,EC50,"Homo sapiens, BGC-823",> 8 µM
same,EC50,"Homo sapiens, BL-41",> 8 µM
same,EC50,"Homo sapiens, BT-20",> 8 µM
same,EC50,"Homo sapiens, BT-474",2.09 µM
same,EC50,"Homo sapiens, BT-549",> 8 µM
same,EC50,"Homo sapiens, C2BBe1",1.73 µM
same,EC50,"Homo sapiens, CAKI-2",> 8 µM
same,EC50,"Homo sapiens, CAL-27",> 8 µM
same,EC50,"Homo sapiens, CAL-85-1",> 8 µM
same,EC50,"Homo sapiens, CAMA-1",> 8 µM
same,EC50,"Homo sapiens, CHL-1",> 8 µM
same,EC50,"Homo sapiens, COLO 201",0.989 µM
same,EC50,"Homo sapiens, COLO 205",1.71 µM
same,EC50,"Homo sapiens, COLO 320",> 8 µM
same,EC50,"Homo sapiens, COLO-679",> 8 µM
same,EC50,"Homo sapiens, COR-L23",> 8 µM
same,EC50,"Homo sapiens, Calu-1",> 8 µM
same,EC50,"Homo sapiens, Calu-3",> 8 µM
same,EC50,"Homo sapiens, Capan-2",> 8 µM
same,EC50,"Homo sapiens, DBTRG-05MG",> 8 µM
same,EC50,"Homo sapiens, DMS-114",0.957 µM
same,EC50,"Homo sapiens, DOV13",> 8 µM
same,EC50,"Homo sapiens, DU-145",> 8 µM
same,EC50,"Homo sapiens, Daoy",> 8 µM
same,EC50,"Homo sapiens, Detroit 562",1.94 µM
same,EC50,"Homo sapiens, EBC-1",0.242 µM
same,EC50,"Homo sapiens, EFE-184",> 8 µM
same,EC50,"Homo sapiens, EFM-19",0.565 µM
same,EC50,"Homo sapiens, EFO-21",> 8 µM
same,EC50,"Homo sapiens, EFO-27",> 8 µM
same,EC50,"Homo sapiens, FaDu",2.3 µM
same,EC50,"Homo sapiens, G-361",> 8 µM
same,EC50,"Homo sapiens, G-401",0.644 µM
same,EC50,"Homo sapiens, GCIY",> 8 µM
same,EC50,"Homo sapiens, GMS-10",2.8 µM
same,EC50,"Homo sapiens, HCC70",> 8 µM
same,EC50,"Homo sapiens, HCC78",> 8 µM
same,EC50,"Homo sapiens, HCC1187",> 8 µM
same,EC50,"Homo sapiens, HCC1569",> 8 µM
same,EC50,"Homo sapiens, HCC1806",> 8 µM
same,EC50,"Homo sapiens, HCC1954",0.597 µM
same,EC50,"Homo sapiens, HCC2935",> 8 µM
same,EC50,"Homo sapiens, HCC4006",0.73 µM
same,EC50,"Homo sapiens, HCT-15",> 8 µM
same,EC50,"Homo sapiens, HCT-116",> 8 µM
same,EC50,"Homo sapiens, HEC-1-A",0.764 µM
same,EC50,"Homo sapiens, HEC-1B",2.77 µM
same,EC50,"Homo sapiens, HEL 92.1.7",> 8 µM
same,EC50,"Homo sapiens, HGC-27",0.539 µM
same,EC50,"Homo sapiens, HMCB",> 8 µM
same,EC50,"Homo sapiens, HPAC",0.69 µM
same,EC50,"Homo sapiens, HSC-2",> 8 µM
same,EC50,"Homo sapiens, HT1197",> 8 µM
same,EC50,"Homo sapiens, HT-29",0.557 µM
same,EC50,"Homo sapiens, HT-144",> 8 µM
same,EC50,"Homo sapiens, HT-1080",> 8 µM
same,EC50,"Homo sapiens, HT-1376",> 8 µM
same,EC50,"Homo sapiens, HepG2",0.819 µM
same,EC50,"Homo sapiens, Hs 294T",> 8 µM
same,EC50,"Homo sapiens, Hs 683",3.62 µM
same,EC50,"Homo sapiens, Hs 695T",> 8 µM
same,EC50,"Homo sapiens, Hs746T",0.231 µM
same,EC50,"Homo sapiens, Hs-578T",> 8 µM
same,EC50,"Homo sapiens, HuCCT-1",> 8 µM
same,EC50,"Homo sapiens, HuH-1",1.38 µM
same,EC50,"Homo sapiens, HuP-T3",1.91 µM
same,EC50,"Homo sapiens, HuP-T4",> 8 µM
same,EC50,"Homo sapiens, HuT78",> 8 µM
same,EC50,"Homo sapiens, IGR-37",> 8 µM
same,EC50,"Homo sapiens, IGROV-1",> 8 µM
same,EC50,"Homo sapiens, IMR-32",0.69 µM
same,EC50,"Homo sapiens, IPC-298",> 8 µM
same,EC50,"Homo sapiens, KALS-1",> 8 µM
same,EC50,"Homo sapiens, KARPAS-299",> 8 µM
same,EC50,"Homo sapiens, KARPAS-422",> 8 µM
same,EC50,"Homo sapiens, KMS-12-BM",> 8 µM
same,EC50,"Homo sapiens, KNS-42",> 8 µM
same,EC50,"Homo sapiens, KU812",> 8 µM
same,EC50,"Homo sapiens, KYSE-30",> 8 µM
same,EC50,"Homo sapiens, KYSE-410",> 8 µM
same,EC50,"Homo sapiens, KYSE-520",> 8 µM
same,EC50,"Homo sapiens, L-363",0.804 µM
same,EC50,"Homo sapiens, LCLC-103H",> 8 µM
same,EC50,"Homo sapiens, LN-18",> 8 µM
same,EC50,"Homo sapiens, LN-229",1.48 µM
same,EC50,"Homo sapiens, LOX IMVI",> 8 µM
same,EC50,"Homo sapiens, LS-123",> 8 µM
same,EC50,"Homo sapiens, LS-513",> 8 µM
same,EC50,"Homo sapiens, Lu-99",1 µM
same,EC50,"Homo sapiens, M059J",> 8 µM
same,EC50,"Homo sapiens, MC116",> 8 µM
same,EC50,"Homo sapiens, MCF7",> 8 µM
same,EC50,"Homo sapiens, MDA-MB-157",> 8 µM
same,EC50,"Homo sapiens, MDA-MB-175-VII",> 8 µM
same,EC50,"Homo sapiens, MDA-MB-415",6.74 µM
same,EC50,"Homo sapiens, MDA-MB-436",> 8 µM
same,EC50,"Homo sapiens, MDA-MB-453",3.41 µM
same,EC50,"Homo sapiens, MDA-MB-468",> 8 µM
same,EC50,"Homo sapiens, MEG-01",> 8 µM
same,EC50,"Homo sapiens, MES-SA",0.795 µM
same,EC50,"Homo sapiens, MFE-280",> 8 µM
same,EC50,"Homo sapiens, MG-63",0.532 µM
same,EC50,"Homo sapiens, MIA PaCa-2",> 8 µM
same,EC50,"Homo sapiens, MINO",0.489 µM
same,EC50,"Homo sapiens, MKN-7",> 8 µM
same,EC50,"Homo sapiens, MKN-45",> 8 µM
same,EC50,"Homo sapiens, MKN-74",> 8 µM
same,EC50,"Homo sapiens, MSTO-211H",> 8 µM
same,EC50,"Homo sapiens, Malme-3M",0.714 µM
same,EC50,"Homo sapiens, NCI-H23",> 8 µM
same,EC50,"Homo sapiens, NCI-H28",1.98 µM
same,EC50,"Homo sapiens, NCI-H211",0.877 µM
same,EC50,"Homo sapiens, NCI-H226",> 8 µM
same,EC50,"Homo sapiens, NCI-H358",1.49 µM
same,EC50,"Homo sapiens, NCI-H441",1.35 µM
same,EC50,"Homo sapiens, NCI-H520",0.706 µM
same,EC50,"Homo sapiens, NCI-H522",> 8 µM
same,EC50,"Homo sapiens, NCI-H647",> 8 µM
same,EC50,"Homo sapiens, NCI-H650",> 8 µM
same,EC50,"Homo sapiens, NCI-H661",> 8 µM
same,EC50,"Homo sapiens, NCI-H727",> 8 µM
same,EC50,"Homo sapiens, NCI-H747",3.94 µM
same,EC50,"Homo sapiens, NCI-H810",> 8 µM
same,EC50,"Homo sapiens, NCI-H1048",> 8 µM
same,EC50,"Homo sapiens, NCI-H1092",> 8 µM
same,EC50,"Homo sapiens, NCI-H1355",1.06 µM
same,EC50,"Homo sapiens, NCI-H1373",> 8 µM
same,EC50,"Homo sapiens, NCI-H1563",> 8 µM
same,EC50,"Homo sapiens, NCI-H1573",1.03 µM
same,EC50,"Homo sapiens, NCI-H1581",> 8 µM
same,EC50,"Homo sapiens, NCI-H1648",> 8 µM
same,EC50,"Homo sapiens, NCI-H1650",2.37 µM
same,EC50,"Homo sapiens, NCI-H1651",2.52 µM
same,EC50,"Homo sapiens, NCI-H1666",> 8 µM
same,EC50,"Homo sapiens, NCI-H1693",> 8 µM
same,EC50,"Homo sapiens, NCI-H1694",> 8 µM
same,EC50,"Homo sapiens, NCI-H1792",1.5 µM
same,EC50,"Homo sapiens, NCI-H1793",0.881 µM
same,EC50,"Homo sapiens, NCI-H1944",2.85 µM
same,EC50,"Homo sapiens, NCI-H1975",> 8 µM
same,EC50,"Homo sapiens, NCI-H2009",> 8 µM
same,EC50,"Homo sapiens, NCI-H2030",> 8 µM
same,EC50,"Homo sapiens, NCI-H2052",0.528 µM
same,EC50,"Homo sapiens, NCI-H2087",0.238 µM
same,EC50,"Homo sapiens, NCI-H2122",0.167 µM
same,EC50,"Homo sapiens, NCI-H2170",1.54 µM
same,EC50,"Homo sapiens, NCI-H2228",> 8 µM
same,EC50,"Homo sapiens, NCI-H2444",> 8 µM
same,EC50,"Homo sapiens, NCI-H2452",> 8 µM
same,EC50,"Homo sapiens, NCI-H3255",> 8 µM
same,EC50,"Homo sapiens, NCI-N87",> 8 µM
same,EC50,"Homo sapiens, NUGC-3",0.178 µM
same,EC50,"Homo sapiens, NUGC-4",0.715 µM
same,EC50,"Homo sapiens, OC-314",> 8 µM
same,EC50,"Homo sapiens, OCI-AML2",1.18 µM
same,EC50,"Homo sapiens, OE33",2.02 µM
same,EC50,"Homo sapiens, ONS-76",1.36 µM
same,EC50,"Homo sapiens, OV-90",> 8 µM
same,EC50,"Homo sapiens, OVCAR-3",> 8 µM
same,EC50,"Homo sapiens, OVCAR-4",> 8 µM
same,EC50,"Homo sapiens, OVCAR-8",> 8 µM
same,EC50,"Homo sapiens, OVSAHO",0.613 µM

# Reference: paper PMC6219668 (Oncotarget, 2018)
